In ChEMBL document CHEMBL1127364, “L-735,524: the design of a potent and orally bioavailable HIV protease inhibitor” (J Med Chem, 1994):

Columns and labels:
[1] = target: Human immunodeficiency virus type 1 protease (Human immunodeficiency virus 1, UniProt Q72874); assay: Evaluated for the inhibition of HIV protease
[2] = target: Human immunodeficiency virus type 1 protease (Human immunodeficiency virus 1) (UniProt Q72874); assay: Inhibition of the spread of HIV-1 IIIb infection in MT-4 human T-lymphoid cells; type: functional, cell-based
[3] = tested on: MT4; assay: Compound was evaluated for the inhibition of the spread of HIV-1 IIIb infection in MT-4 human T-lymphoid cells; value ranges from 50-100 nM; type: functional; conditions: read-out: CIC95
[4] = Partition coefficient of the compound was evaluated; type: physicochemical; conditions: octanol/water
[5] = Compound was evaluated for the solubility at pH value of 7.4; type: physicochemical; conditions: pH 7.4
[6] = Compound was evaluated for maximum plasma concentration levels in dogs at 10 mg/kg (in 0.05M citric acid solution) po; conditions: dog
[7] = tested on: MT4; assay: Compound was evaluated for the inhibition of the spread of HIV-1 IIIb infection in MT-4 human T-lymphoid cells; value ranges from 25-100 nM; type: functional; conditions: read-out: CIC95
[8] = tested on: MT4; assay: Compound was evaluated for the inhibition of the spread of HIV-1 IIIb infection in MT-4 human T-lymphoid cells; value ranges from 25-50 nM; type: functional; conditions: read-out: CIC95
[9] = tested on: MT4; assay: Compound was evaluated for the inhibition of the spread of HIV-1 IIIb infection in MT-4 human T-lymphoid cells; value ranges from […]-[…] nM; type: functional; conditions: read-out: CIC95

Structure (SMILES) | IC50 [1] | IC95 [2] | also measured
CC(C)(C)NC(=O)[C@@H]1CN(Cc2ccccc2S)CCN1C[C@@H](O)C[C@@H](Cc1ccccc1)C(=O)N[C@@H]1c2ccccc2C[C@H]1O | 0.54 nM | 25 nM | 
CC(C)(C)NC(=O)[C@@H]1CN(S(=O)(=O)c2cccnc2)CCN1C[C@@H](O)C[C@@H](Cc1ccccc1)C(=O)N[C@@H]1c2ccccc2C[C@H]1O | 0.3 nM | 200 nM | 
CC(C)(C)NC(=O)[C@@H]1CN(Cc2ccncc2)CCN1C[C@@H](O)C[C@@H](Cc1ccccc1)C(=O)N[C@@H]1c2ccccc2C[C@H]1O | 0.39 nM |  | IC95 [3]: 50 nM
Cc1nc(S(=O)(=O)N2CCN(C[C@@H](O)C[C@@H](Cc3ccccc3)C(=O)N[C@@H]3c4ccccc4C[C@H]3O)[C@H](C(=O)NC(C)(C)C)C2)c(C)s1 | 0.16 nM | 200 nM | 
CC(C)(C)NC(=O)[C@@H]1CN(C(=O)OCc2ccccc2)CCN1C[C@@H](O)C[C@@H](Cc1ccccc1)C(=O)NC1c2ccccc2C[C@H]1O (single isomer, unassigned) | 0.36 nM | 100 nM | logP [4]: 4.67; solubility [5]: < 1 µg/mL; Cmax [6]: < 100 nM
CCN1CCN(C[C@@H](O)C[C@@H](Cc2ccccc2)C(=O)N[C@@H]2c3ccccc3C[C@H]2O)[C@H](C(=O)NC(C)(C)C)C1 | 6.1 nM | > 400 nM | 
CC(C)(C)NC(=O)[C@@H]1CN(CCOCc2ccccc2)CCN1C[C@@H](O)C[C@@H](Cc1ccccc1)C(=O)N[C@@H]1c2ccccc2C[C@H]1O | 1.03 nM | 100 nM | 
CC(C)(C)NC(=O)[C@@H]1CN(CC(=O)OC(C)(C)C)CCN1C[C@@H](O)C[C@@H](Cc1ccccc1)C(=O)N[C@@H]1c2ccccc2C[C@H]1O | 0.81 nM | 100 nM | 
CC(C)(C)NC(=O)[C@@H]1CN(Cc2cccnc2)CCN1C[C@@H](O)C[C@@H](Cc1ccccc1)C(=O)NC1c2ccccc2C[C@H]1O.O (single isomer, unassigned) |  |  | IC95 [7]: 25 nM; logP [4]: 2.92; Cmax [6]: 11400 nM
CC(C)(C)NC(=O)[C@@H]1CC2CCCCC2CN1C[C@@H](O)C[C@@H](Cc1ccccc1)C(=O)N[C@@H]1c2ccccc2C[C@H]1O (some centres undefined) | 7.8 nM | 400 nM | 
CC(C)(C)NC(=O)[C@@H]1CNCCN1C[C@@H](O)C[C@@H](Cc1ccccc1)C(=O)N[C@@H]1c2ccccc2C[C@H]1O | 38 nM | 3000 nM | 
CC(C)(C)NC(=O)[C@@H]1CCCN1C[C@@H](O)C[C@@H](Cc1ccccc1)C(=O)N[C@@H]1c2ccccc2C[C@H]1O | 347 nM | 1500 nM | 
CC(C)(C)NC(=O)[C@@H]1C[C@H](Oc2ccc3ccccc3c2)CN1C[C@@H](O)C[C@@H](Cc1ccccc1)C(=O)N[C@@H]1c2ccccc2C[C@H]1O | 15 nM | > 400 nM | 
CC(C)(C)NC(=O)[C@@H]1CN(Cc2ccc(F)cc2F)CCN1C[C@@H](O)C[C@@H](Cc1ccccc1)C(=O)N[C@@H]1c2ccccc2C[C@H]1O | 0.31 nM |  | logP [4]: 3.69; IC95 [8]: 25 nM; Cmax [6]: 730 nM
CC(C)(C)NC(=O)[C@@H]1CN(S(=O)(=O)c2cccc3cccnc23)CCN1C[C@@H](O)C[C@@H](Cc1ccccc1)C(=O)N[C@@H]1c2ccccc2C[C@H]1O | 0.013 nM |  | logP [4]: 3.7; solubility [5]: < 1 µg/mL; IC95 [9]: 12.5 nM; Cmax [6]: < 100 nM
CC(C)(C)NC(=O)[C@@H]1CN(C(=O)c2cc3ccccc3oc2=O)CCN1C[C@@H](O)C[C@@H](Cc1ccccc1)C(=O)N[C@@H]1c2ccccc2C[C@H]1O | 0.13 nM | 50 nM | 
CC(C)(C)NC(=O)[C@@H]1CCCCN1C[C@@H](O)C[C@@H](Cc1ccccc1)C(=O)N[C@@H]1c2ccccc2C[C@H]1O | 80 nM |  | 
CC(C)(C)NC(=O)[C@@H]1CN(Cc2ccccc2)CCN1C[C@@H](O)C[C@@H](Cc1ccccc1)C(=O)N[C@@H]1c2ccccc2C[C@H]1O | 0.3 nM | 50 nM | 
